Test results as given in US7049289B1, “Labelled glutamine and lysine analogues” (Amersham PLC, priority 1998, dated 2006).
Where two headings read alike, the source gives them in different places. *1 amine or outer side, *2 acyl side, *3 side chain or, on linkers, in order; H or OH if unused. The star is where a group is joined. Fmoc = O=C(OCC1c2ccccc2-c2ccccc21)*; Glutaryl = O=C(CCCC(=O)[*:2])[*:1]; code Z = not defined here

Assays:
[1] = target: T1, fibrin (in vitro human plasma clot) (Homo sapiens, UniProt P02671+P02675+P02679); assay: Incorporation into human plasma clots in vitro; assay type: biochemical; settings: for % specific uptake: % retained (with thrombin) - % retained (no thrombin); for % retained (no thrombin): control without thrombin and calcium chloride (non-specific binding); for % retained (with thrombin): human plasma clot, 60 minutes, ca. 20° C.
T1 construct: about 400 μl of human plasma containing the radiolabelled substrate; from tissue; host or cells: human plasma, clotted in vitro with added thrombin and calcium chloride
T1 sequence (P02671 20-644 isoform P02671-2 limits assumed): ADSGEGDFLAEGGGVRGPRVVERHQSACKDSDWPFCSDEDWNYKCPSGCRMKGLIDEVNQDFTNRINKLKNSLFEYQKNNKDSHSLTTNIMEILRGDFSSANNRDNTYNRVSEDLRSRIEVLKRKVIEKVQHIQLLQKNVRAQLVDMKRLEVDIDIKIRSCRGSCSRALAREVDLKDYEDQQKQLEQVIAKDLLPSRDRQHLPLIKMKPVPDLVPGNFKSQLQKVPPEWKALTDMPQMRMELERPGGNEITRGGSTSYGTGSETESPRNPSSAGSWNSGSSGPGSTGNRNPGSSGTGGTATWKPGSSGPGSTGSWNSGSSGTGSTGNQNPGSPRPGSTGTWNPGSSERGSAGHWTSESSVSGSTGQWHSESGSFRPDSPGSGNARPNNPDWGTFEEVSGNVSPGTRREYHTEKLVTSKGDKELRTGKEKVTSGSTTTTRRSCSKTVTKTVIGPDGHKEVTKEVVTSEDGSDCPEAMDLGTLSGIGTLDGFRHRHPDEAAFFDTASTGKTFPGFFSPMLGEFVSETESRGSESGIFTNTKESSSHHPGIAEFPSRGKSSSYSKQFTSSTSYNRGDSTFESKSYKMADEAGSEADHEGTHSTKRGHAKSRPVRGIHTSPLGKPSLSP
T1 sequence (P02675 45-491 limits assumed): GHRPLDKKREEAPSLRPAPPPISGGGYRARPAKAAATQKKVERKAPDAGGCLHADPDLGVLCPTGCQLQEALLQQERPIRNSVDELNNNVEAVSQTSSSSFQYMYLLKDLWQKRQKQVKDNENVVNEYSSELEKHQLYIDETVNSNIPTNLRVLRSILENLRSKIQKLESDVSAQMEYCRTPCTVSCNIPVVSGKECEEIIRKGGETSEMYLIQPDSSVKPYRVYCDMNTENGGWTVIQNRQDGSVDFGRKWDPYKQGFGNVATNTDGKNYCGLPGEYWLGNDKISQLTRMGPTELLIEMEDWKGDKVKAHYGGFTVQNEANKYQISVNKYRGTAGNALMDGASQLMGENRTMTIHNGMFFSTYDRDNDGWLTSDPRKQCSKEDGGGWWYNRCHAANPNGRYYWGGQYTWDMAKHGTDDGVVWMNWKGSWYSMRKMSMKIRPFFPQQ
T1 sequence (P02679 27-437 isoform P02679-2 limits assumed): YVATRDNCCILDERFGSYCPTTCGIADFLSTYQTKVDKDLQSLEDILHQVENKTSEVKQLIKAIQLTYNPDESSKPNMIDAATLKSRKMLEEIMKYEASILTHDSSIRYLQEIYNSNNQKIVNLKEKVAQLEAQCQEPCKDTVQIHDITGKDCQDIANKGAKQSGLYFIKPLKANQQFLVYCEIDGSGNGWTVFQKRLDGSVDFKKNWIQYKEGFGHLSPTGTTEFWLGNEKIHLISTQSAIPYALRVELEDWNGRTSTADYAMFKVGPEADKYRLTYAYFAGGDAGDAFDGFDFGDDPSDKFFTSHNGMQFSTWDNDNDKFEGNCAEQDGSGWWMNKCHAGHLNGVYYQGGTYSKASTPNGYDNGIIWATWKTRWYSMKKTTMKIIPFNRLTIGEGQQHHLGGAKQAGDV
Outline: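 Fibrin incorporation is expressed as the fraction of total radioactivity retained with filtered clots, corrected for non-specific binding in controls lacking thrombin and calcium chloride. Clotting was induced by thrombin in Ca2+-containing Tris-buffered saline (pH 7.5) with human plasma carrying about 10 kBq/ml tracer, for 60 min at ambient temperature before EDTA quench.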

[2] = Incorporation into clots induced in a rat model (rat inferior vena cava model); assay type: in vivo, rat (Male Wistar); settings: for % id/g (clot) / Rel. Conc. (cpm/g of clot by dose/g animal): sacrificed after 60 min
Outline: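 Male Wistar rats (250–350 g) under 15% urethane anaesthesia, with the vena cava isolated by laparotomy. Compounds given 5 min (fresh clot) or 60 min (aged clot) after clot induction; clot, blood, lung and heart removed 60 min later, weighed and counted. Uptake expressed as cpm/g clot per dose/g animal and as clot-to-background tissue ratio.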

[3] = human, plasma, 2 h
Experimental: (§1) To a portion of compound (50 μl, 10 MBq/ml) was added an equal volume of plasma (rat or human) or saline. The mixtures were incubated at 37° C. and the stability measured by HPLC (system C) at 0, 30 and 120 minutes. The saline dilution acted as a control.

[4] = rat, plasma, 2 h
Experimental: as §1

[5] = Aged Clots: injected 60 min post-induction
[6] = Fresh Clots: injected 5 min post-induction

% specific uptake [1] [%]	% retained (no thrombin) [1] [%]	% retained (with thrombin) [1] [%]	in vitro clot uptake (in words) [1]	Substance	Clot/blood ([2]; Aged Clots)	Clot/heart ([2]; Aged Clots)	Clot/liver ([2]; Aged Clots)	Clot/lung ([2]; Aged Clots)	% id/g (clot) [2, 5] [% id/g]	Rel. Conc. (cpm/g of clot by dose/g animal) [2, 5]	Clot/blood ([2]; Fresh Clots)	Clot/heart ([2]; Fresh Clots)	Clot/liver ([2]; Fresh Clots)	Clot/lung ([2]; Fresh Clots)	% id/g (clot) [2, 6] [% id/g]	Rel. Conc. (cpm/g of clot by dose/g animal) [2, 6]	% intact at 120 mins [3] [%]	% intact at 120 mins [4] [%]	RC (in vivo clot uptake) [2]
34.5	0.3	34.8	–	Ac-NQEAVSPYTLLKG-Pn44 (also: 99mTc complex) [^99mTc-Cmpd 12]	19	75	7	15	4.1 ± 1.2	11.2 ± 3.4	20	31	8	17	7.3 ± 4.1	19.8 ± 11.0	>90	>90	–
12.8	0.2	13.0	–	Fmoc-NQQQ(D-V)S(OMe)PLG-Pn216 [^99mTc-Cmpd 37]	0.4	2	9	1	0.2 ± 0.03	0.5 ± 0.1	0.6	1	1	0.7	0.4 ± 0.2	0.9 ± 0.4	–	–	–
12.6	2.0	14.6	–	NQEQVSPYTLLK [^123I-Cmpd 1, reference compound]	–	–	–	–	–	–	1	–	–	–	0.5 ± 0.1	1.6 ± 0.4	–	–	1.5
56.4	0.4	56.8	–	Z-NQEQVSP(I-Y)TLLKG-Pn216 [^99mTc-Cmpd 24]	15	40	37	20	4.1 ± 2.5	11.9 ± 8.0	10	21	11	10	4.0 ± 2.2	11.1 ± 6.7	–	–	–
6.1	0.2	6.3	significant reduction in uptake	p-EAQIVG-Pn44 [^99mTc-Cmpd 46]	4	5	1	3	0.5 ± 0.2	1.3 ± 0.6	5	6	1	3	0.8 ± 0.4	2.0 ± 0.7	–	–	–

The remaining lines, values behind:

Substance	% specific uptake [1] [%]	% retained (no thrombin) [1] [%]	% retained (with thrombin) [1] [%]	in vitro clot uptake (in words) [1]	Clot/blood ([2]; Aged Clots)	Clot/heart ([2]; Aged Clots)	Clot/liver ([2]; Aged Clots)	Clot/lung ([2]; Aged Clots)	% id/g (clot) [2, 5] [% id/g]	Rel. Conc. (cpm/g of clot by dose/g animal) [2, 5]	Clot/blood ([2]; Fresh Clots)	Clot/heart ([2]; Fresh Clots)	Clot/liver ([2]; Fresh Clots)	Clot/lung ([2]; Fresh Clots)	% id/g (clot) [2, 6] [% id/g]	Rel. Conc. (cpm/g of clot by dose/g animal) [2, 6]	% intact at 120 mins [3] [%]	% intact at 120 mins [4] [%]	RC (in vivo clot uptake) [2]
Fmoc-NQEQVSPYTLLKG-Pn216 (also: 99mTc complex) [^99mTc-Cmpd 9]	42.8	2.7	44.5	–	8	21	6	7	3.7 ± 0.4	11.4 ± 1.5	13	32	13	12	8.8 ± 3.6	24.8 ± 9.6	–	–	–
Pn44-CO(CH2)3CO-NQEQVSPYTLLKG-NH2 ({Pn44-Glutaryl}-NQEQVSPYTLLKG-NH2; also: 99mTc complex) [^99mTc-Cmpd 38]	20.3	0.7	21.0	–	3	1	2	0.5	0.8 ± 0.3	2.4 ± 0.7	5	15	3	6	1.9 ± 0.5	5.4 ± 1.5	–	–	–
Pn216-CO(CH2)3CO-G(D-K)(D-L)(D-L)(D-T)(D-Y)(D-P)(D-S)(D-V)NH2 [^99mTc-Cmpd 36]	8.6	0.1	8.7	significant reduction in uptake	0.6	18	4	10	0.1 ± 0.02	0.2 ± 0.1	1	3	4	1	0.2 ± 0.1	0.7 ± 0.3	–	–	–
Pn216-CO(CH2)3CO-NQEQVSPYTLLKG-NH2 ({Pn216-Glutaryl}-NQEQVSPYTLLKG-NH2; also: 99mTc complex) [^99mTc-Cmpd 39]	23.0	0.1	23.1	–	15	43	11	12	2.4 ± 0.3	8.2 ± 1.1	9	29	31	14	2.5 ± 0.3	9.0 ± 1.1	–	–	–
Z-NQEQVSPYAAAAG-Pn216 ({code Z}-NQEQVSPYAAAAG-Pn216; reading uncertain; also: 99mTc complex, printed as Z-NQEQVSPYAAAAG-Pn216) [^99mTc-Cmpd 42]	14.0	0.2	14.2	–	5	21	6	7	0.4 ± 0.1	1.3 ± 0.3	2	1	63	0.3	0.3 ± 0.1	0.3 ± 0.2	–	–	–
Z-NQEQVSPYTLLKG-Pn216 ({code Z}-NQEQVSPYTLLKG-Pn216; reading uncertain; also: 99mTc complex, printed as Z-NQEQVSPYTLLKG-Pn216) [^99mTc-Cmpd 8]	24.5	1.4	25.9	–	10	24	16	9	5.3 ± 1.3	16.4 ± 4.3	14	41	21	18	6.7 ± 1.7	21.0 ± 6.8	–	–	–
